Consider five compounds from DBAASP.

Among the test systems are Staphylococcus aureus; Pseudomonas aeruginosa; Acinetobacter baumannii; Klebsiella pneumoniae; Escherichia coli.
Common to all, as to assay: ≥ marks a high value that may be exact or a test limit, other limits are often not marked, values filed in µg/mL are converted to µM
The test system of experiment [1] is Escherichia coli ATCC 25922.
Experiment [2] deals with Staphylococcus aureus ATCC 25923.
For experiment [3], the system named is Acinetobacter baumannii ATCC 19606.
Experiment [4] deals with Klebsiella pneumoniae ATCC 13883.
For experiment [5], the system named is Pseudomonas aeruginosa ATCC 27853.
For experiment [6], the system named is Staphylococcus aureus KCTC 1621.
Experiment [7] relates to Bacillus subtilis KCTC 3068.
In experiment [8] the test system is Escherichia coli KCTC 1682.
The test system of experiment [9] is Pseudomonas aeruginosa KCTC 1637.
For experiment [10], the system named is Staphylococcus epidermidis KCTC 1917.
Experiment [11] relates to Salmonella typhimurium KCTC 1926.

≈ marks a conversion by molar mass, not a printed value.

On to `CC[C@H](C)[C@H](NC(=O)[C@H](CCCCN)NC(=O)CNC(=O)[C@H](C)NC(=O)[C@H](CCCCN)NC(=O)CNC(=O)[C@H](C)NC(=O)[C@@H](NC(=O)[C@H](CCCCN)NC(=O)[C@H](C)NC(=O)[C@@H](NC(=O)[C@H](CCCCN)NC(=O)CNC(=O)[C@H](C)NC(=O)[C@H](CCCCN)NC(=O)CNC(=O)[C@H](C)NC(=O)[C@@H](NC(=O)[C@@H](N)CCCCN)[C@@H](C)CC)[C@@H](C)CC)[C@@H](C)CC)C(=O)N[C@@H](C)C(N)=O` [KIAGKAGKIAKIAGKAGKIA], for which the MIC in experiment [1] is above 64 µM; with Staphylococcus aureus it was above 64 µM; in experiment [2] it was above 64 µM; against Pseudomonas aeruginosa, above 64 µM; in the experiment with Acinetobacter baumannii it was at least 64 µM; in experiment [3], above 64 µM. The MIC against Klebsiella pneumoniae is above 64 µM; in [4], at least 64 µM; in experiment [5], above 64 µM; in the experiment on Escherichia coli, above 64 µM.

As to `CC[C@H](C)[C@H](NC(=O)[C@H](CCCCN)NC(=O)[C@H](Cc1c[nH]c2ccccc12)NC(=O)[C@H](CC(C)C)NC(=O)[C@@H](N)CCCCN)C(=O)N[C@H](C(=O)N[C@H](C(=O)N[C@H](C(=O)N[C@@H](CCCCN)C(=O)N[C@H](C(=O)N[C@@H](Cc1c[nH]c2ccccc12)C(=O)N[C@@H](CCCCN)C(N)=O)C(C)C)[C@@H](C)CC)C(C)C)C(C)C` [KLWKIVVIKVWK], the MIC in experiment [6] was 16.2 µM (≈ 25 µg/mL); in [7], at least 32.5 µM; in [8], at least 32.5 µM; in experiment [9], 16.2 µM (≈ 25 µg/mL); in [10], 16.2 µM (≈ 25 µg/mL); in experiment [11], 16.2 µM (≈ 25 µg/mL).

Turning to `CC(C)C[C@H](NC(=O)[C@H](C)NC(=O)[C@H](Cc1c[nH]c2ccccc12)NC(=O)[C@H](CCCCN)NC(=O)[C@H](CC(N)=O)NC(=O)[C@H](Cc1c[nH]c2ccccc12)NC(=O)[C@H](CCCCN)NC(=O)[C@H](CCCCN)NC(=O)[C@H](CCCN=C(N)N)NC(=O)[C@H](Cc1ccccc1)NC(=O)[C@H](CCC(=O)O)NC(=O)[C@H](CO)NC(=O)[C@H](C)NC(=O)[C@@H](NC(=O)[C@H](CC(=O)O)NC(=O)[C@H](CC(C)C)NC(=O)[C@H](CCCN=C(N)N)NC(=O)[C@H](C)N)C(C)C)C(=O)N[C@@H](CO)C(=O)N[C@@H](CCCN=C(N)N)C(N)=O` [ARLDVASEFRKKWNKWALSR], the MIC in [6] is 16 µM (≈ 39.4 µg/mL); in experiment [7], 8 µM (≈ 19.7 µg/mL); in [8], 8 µM (≈ 19.7 µg/mL); in experiment [9], at least 32 µM; in experiment [10], 8 µM (≈ 19.7 µg/mL); in experiment [11] it was 16 µM (≈ 39.4 µg/mL).

`CC[C@H](C)[C@H](NC(=O)[C@H](CCCCN)NC(=O)[C@H](CCCCN)NC(=O)[C@H](CC(C)C)NC(=O)[C@@H](N)CCCCN)C(=O)N[C@H](C(=O)N[C@H](C(=O)N[C@H](C(=O)N[C@@H](CCCCN)C(=O)N[C@H](C(=O)N[C@@H](CCCCN)C(=O)N[C@@H](CCCCN)C(N)=O)C(C)C)[C@@H](C)CC)C(C)C)C(C)C` [KLKKIVVIKVKK]: the MIC is 8.78 µM (≈ 12.5 µg/mL) in [6]; 8.78 µM (≈ 12.5 µg/mL) in [7]; 8.78 µM (≈ 12.5 µg/mL) in experiment [8]; 17.6 µM (≈ 25 µg/mL) in experiment [9]; 2.2 µM (≈ 3.13 µg/mL) in [10]; 2.2 µM (≈ 3.13 µg/mL) in experiment [11].

For the compound `CC[C@H](C)[C@H](N)C(=O)NCC(=O)N[C@@H](CCCCN)C(=O)N[C@@H](CC(C)C)C(=O)N[C@@H](Cc1ccccc1)C(=O)N[C@@H](CCCCN)C(=O)N[C@@H](CCCN=C(N)N)C(=O)N[C@H](C(=O)N[C@H](C(=O)N[C@@H](CCC(N)=O)C(=O)N[C@@H](CCCN=C(N)N)C(=O)N[C@H](C(=O)N[C@@H](CC(C)C)C(=O)N[C@@H](CCCCN)C(=O)N[C@@H](Cc1ccccc1)C(=O)N[C@@H](CC(C)C)C(=O)N[C@@H](CCCN=C(N)N)C(=O)N[C@@H](CC(N)=O)C(=O)N[C@@H](CC(C)C)C(=O)O)[C@@H](C)CC)C(C)C)[C@@H](C)CC` [IGKLFKRIVQRILKFLRNL], the MIC in experiment [6] was found to be 8 µM (≈ 18.8 µg/mL); in [7], 2 µM (≈ 4.71 µg/mL); in [8] it was 8 µM (≈ 18.8 µg/mL); in [9], 8 µM (≈ 18.8 µg/mL); in [10] it was 8 µM (≈ 18.8 µg/mL); in experiment [11], 4 µM (≈ 9.42 µg/mL).

For orientation: MIC means the smallest concentration in the dilution series that meets the test's criterion for growth inhibition. Read a high MIC as weaker potency.
